Measurements: patent US20200297711A1, “PHARMACEUTICAL COMPOSITION COMPRISING FGFR SELECTIVE TYROSINE KINASE INHIBITOR” (priority 2017, published 2020)
Marks after values point to notes of the source that are not given here.

Assays:
[1] = Pharmacokinetics in plasma following single dose and repeated doses of Compound A 1.5 succinate; format: in vivo, human; settings: for AUC(0-t) / Cavg / Cmax / Cmin / tmax / tmax, median (minimum − maximum) / AUC(0-inf) / CL/F / t1/2: Compound A
Protocol: In order to evaluate the PK when administered as a single dose, a single dose of Compound A for each treatment group (at the corresponding dosage for that group) was administered on Day 1. Compound A was administered when fasted, immediately after waking up with at least 10 hours fasting. Taking any meal was prohibited for 2 hours after administration and only drinking water was allowed.
Cycle 1 was started between 8 and 10 days after dosing in Cycle 0 and Compound A was administered continuously once daily. Compound A was administered at least 2 hours after breakfast, and any food intake was prohibited for 1 hour after administration. However, on Day 8 of Cycle 1, Compound A was administered immediately after waking up while the subject was fasted after at least 10 hours of overnight fasting in order to evaluate the PK. Taking any meals was prohibited for 2 hours after administration and only drinking water was allowed.
Plasma concentration profile of Compound A following a single dose and repeated doses of Compound A 1.5 succinate are shown in FIG. 1 and FIG. 2, respectively. The profile shown in FIG. 2 is that at steady state.
The pharmacokinetic parameters of Compound A following the single dose and repeated doses of Compound A 1.5 succinate are shown in the following table. The pharmacokinetic parameters of Compound A following repeated doses of Compound A 1.5 succinate shown below are those at steady state.
The pharmacokinetic parameters of Compound A following the single dose and repeated doses of Compound A 1.5 succinate updated after obtaining the above data are shown in the following table. The pharmacokinetic parameters of Compound A following repeated doses of Compound A 1.5 succinate shown below are those at steady state.
The pharmacokinetic parameters of Compound B following the single dose and repeated doses of Compound A 1.5 succinate are shown in the following table. The pharmacokinetic parameters of Compound B following repeated doses of Compound A 1.5 succinate shown below are those at steady state.

[2] = system: FGFR2 gene amplified diffused type gastric cancer; assay: Anti-tumor activity, tumor size on CT images, patient; format: in vivo, human; settings: 180 mg once daily, one patient, Day 1 of Cycle 3 vs before administration
Protocol: Compound A was administered once daily at 180 mg to a patient with FGFR2 gene amplified diffused type gastric cancer (poorly differentiated adenocarcinoma). The left image is that before the administration and the right image is that on Day 1 of Cycle 3.

FGFR pathway = assay: Pharmacodynamics: serum Phosphate, FGF23 and 1,25-(OH)2-Vitamin D, PD markers of FGFR pathway inhibition; format: in vivo, human
Protocol: Serum concentrations of Phosphate, FGF23 and 1,25-(OH)2-Vitamin D, PD markers of FGFR pathway inhibition were measured before the administration of Compound A and on Day 15 of Cycle 1.

[3] = system: stomach cancer, lung cancer, bladder cancer, endometrial cancer, bile duct cancer, breast cancer; settings: endometrial cancer (PTL 1), bile duct cancer (PTL 2), breast cancer (PTL 3); cited from earlier work
[4] = repeated once-daily doses 30 mg, steady state (n = 2), Table 4
[5] = repeated once-daily doses 30 mg, steady state (n = 2), Table 5 (updated)
[6] = repeated once-daily doses 60 mg, steady state (n = 2), Table 4
[7] = repeated once-daily doses 60 mg, steady state (n = 2), Table 5 (updated)
[8] = repeated once-daily doses 100 mg, steady state (n = 3), Table 4
[9] = repeated once-daily doses 100 mg, steady state (n = 3), Table 5 (updated)
[10] = repeated once-daily doses 140 mg, steady state (n = 3), Table 4
[11] = repeated once-daily doses 140 mg, steady state (n = 3), Table 5 (updated)
[12] = repeated once-daily doses 180 mg, steady state (n = 3), Table 4
[13] = repeated once-daily doses 180 mg, steady state (n = 3), Table 5 (updated)
[14] = single dose 30 mg (n = 2), Table 4
[15] = single dose 30 mg (n = 2), Table 5 (updated)
[16] = single dose 60 mg (n = 3), Table 4
[17] = single dose 60 mg (n = 3), Table 5 (updated)
[18] = single dose 100 mg (n = 3), Table 4
[19] = single dose 100 mg (n = 3), Table 5 (updated)
[20] = single dose 140 mg (n = 3), Table 4
[21] = single dose 140 mg (n = 3), Table 5 (updated)
[22] = single dose 180 mg (n = 3), Table 4
[23] = single dose 180 mg (n = 3), Table 5 (updated)

In the case of `CNC(=O)n1ccc2cc(Oc3ccnc(NC(=O)c4ccc(C5CCN(CCO)CC5)cc4)c3)c(OCCOC)cc21` [Compound A, 5-((2-(4-(1-(2-hydroxyethyl)piperidin-4-yl)benzamide)pyridin-4-yl)oxy)-6-(2-methoxyethoxy)-N-methyl-1H-indole-1-carboxamide], the “metabolism in human subjects” value ([1]; Compound A administered to human subjects) is reported as “metabolized in the body to produce Compound B”, the “AUC(0-t)” value [1, 4] is reported as 158 ng·h/mL and the Cavg [1, 4] is reported as 6.58 ng/mL. The Cmax [1, 4] was 13.3 ng/mL, the Cmin [1, 4] was 2.48 ng/mL and the tmax [1, 4] was 4 (3-5) h. The “AUC(0-t)” value [1, 5] was 162 ng·h/mL, the Cavg [1, 5] was 6.75 ng/mL and the Cmax [1, 5] was 13.3 ng/mL. For the same compound, the Cmin [1, 5] was 4.50 ng/mL, the “tmax, median (minimum − maximum)” value [1, 5] was 3.99 (3.00-4.97) h and the “AUC(0-t)” value [1, 6] was 499^a^ h · ng/mL. The Cavg [1, 6] was 20.8^a ng/mL, the Cmax [1, 6] was 50.5^a ng/mL and the Cmin [1, 6] was 8.28^a ng/mL. For the same compound, the tmax [1, 6] was 2.5 (2-3)^a h, the “AUC(0-t)” value [1, 7] was 507^a^ h · ng/mL and the Cavg [1, 7] was 21.1^a ng/mL. For the same compound, the Cmax [1, 7] was 50.5^a ng/mL, the Cmin [1, 7] was 11.0^a ng/mL and the “tmax, median (minimum − maximum)” value [1, 7] was 2.54 (2.07-3.00) ^a h. The “AUC(0-t)” value [1, 8] was 1330 ± 417 ng·h/mL, the Cavg [1, 8] was 55.2 ± 17.3 ng/mL and the Cmax [1, 8] was 116 ± 3.79 ng/mL. The Cmin [1, 8] was 18.7 ± 7.95 ng/mL, the tmax [1, 8] was 3 (2-5) h and the “AUC(0-t)” value [1, 9] was 1340 ± 437 ng·h/mL. It also gave a Cavg [1, 9] of 55.91 ± 8.2 ng/mL, a Cmax [1, 9] of 116 ± 3.79 ng/mL and a Cmin [1, 9] of 22.3 ± 8.48 ng/mL. The “tmax, median (minimum − maximum)” value [1, 9] was 2.97 (2.03-5.00) h, the “AUC(0-t)” value [1, 10] was 4700 ± 3380 ng·h/mL and the Cavg [1, 10] was 196 ± 141 ng/mL. For the same compound, the Cmax [1, 10] was 372 ± 173 ng/mL, the Cmin [1, 10] was 101 ± 94.5 ng/mL and the tmax [1, 10] was 5 (3-5) h. The “AUC(0-t)” value [1, 11] was 4700 ± 3380 ng·h/mL, the Cavg [1, 11] was 196 ± 141 ng/mL and the Cmax [1, 11] was 372 ± 173 ng/mL. The Cmin [1, 11] was 117 ± 116 ng/mL, the “tmax, median (minimum − maximum)” value [1, 11] was 5.00 (2.98-5.08) h and the “AUC(0-t)” value [1, 12] was 3850 ± 777 ng·h/mL. For the same compound, the Cavg [1, 12] was 161 ± 32.3 ng/mL, the Cmax [1, 12] was 337 ± 60.3 ng/mL and the Cmin [1, 12] was 61.4 ± 19.9 ng/mL. The tmax [1, 12] was 5 (3-5) h, the “AUC(0-t)” value [1, 13] was 3860 ± 764 ng·h/mL and the Cavg [1, 13] was 161 ± 32.3 ng/mL. For the same compound, the Cmax [1, 13] was 337 ± 60.3 ng/mL, the Cmin [1, 13] was 64.8 ± 19.4 ng/mL and the “tmax, median (minimum − maximum)” value [1, 13] was 5.00 (3.05-5.08) h. For the same compound, the “AUC(0-inf)” value [1, 14] was 236 ng·h/mL, the “AUC(0-t)” value [1, 14] was 220 ng·h/mL and the CL/F [1, 14] was 128 L/h. For the same compound, the Cmax [1, 14] was 28.1 ng/mL, the t1/2 [1, 14] was 22.8 h and the tmax [1, 14] was 3 (1-5) h. For the same compound, the “AUC(0-inf)” value [1, 15] was 239 ng·h/mL, the “AUC(0-t)” value [1, 15] was 222 ng·h/mL and the CL/F [1, 15] was 127 L/h. The Cmax [1, 15] was 28.1 ng/mL, the t1/2 [1, 15] was 22.7 h and the “tmax, median (minimum − maximum)” value [1, 15] was 3.04 (0.93-5.15) h. For the same compound, the “AUC(0-inf)” value [1, 16] was 551 ± 240 ng·h/mL, the “AUC(0-t)” value [1, 16] was 529 ± 250 ng·h/mL and the CL/F [1, 16] was 122 ± 42.5 L/h. For the same compound, the Cmax [1, 16] was 38.7 ± 4.69 ng/mL, the t1/2 [1, 16] was 23.1 ± 7.65 h and the tmax [1, 16] was 3 (3-5) h. For the same compound, the “AUC(0-inf)” value [1, 17] was 554 ± 247 ng·h/mL, the “AUC(0-t)” value [1, 17] was 533 ± 257 ng·h/mL and the CL/F [1, 17] was 121 ± 43.1 L/h. For the same compound, the Cmax [1, 17] was 38.7 ± 4.69 ng/mL, the t1/2 [1, 17] was 23.1 ± 7.63 h and the “tmax, median (minimum − maximum)” value [1, 17] was 3.00 (2.97-4.98)^ h. The “AUC(0-inf)” value [1, 18] was 1120 ± 488 ng·h/mL, the “AUC(0-t)” value [1, 18] was 1090 ± 483 ng·h/mL and the CL/F [1, 18] was 103 ± 48.9 L/h. The Cmax [1, 18] was 85.9 ± 30.8 ng/mL, the t1/2 [1, 18] was 15.1 ± 1.77 h and the tmax [1, 18] was 5 (3-5) h. For the same compound, the “AUC(0-inf)” value [1, 19] was 1120 ± 479 ng·h/mL, the “AUC(0-t)” value [1, 19] was 1080 ± 474 ng·h/mL and the CL/F [1, 19] was 103 ± 48.2 L/h. For the same compound, the Cmax [1, 19] was 85.9 ± 30.8 ng/mL, the t1/2 [1, 19] was 15.2 ± 1.84 h and the “tmax, median (minimum − maximum)” value [1, 19] was 4.95 (2.97-5.10) h. For the same compound, the “AUC(0-inf)” value [1, 20] was 4000 ± 3340 ng·h/mL, the “AUC(0-t)” value [1, 20] was 3900 ± 3230 ng·h/mL and the CL/F [1, 20] was 60.4 ± 51.6 L/h. For the same compound, the Cmax [1, 20] was 227 ± 118.0 ng/mL, the t1/2 [1, 20] was 26.4 ± 12.2 h and the tmax [1, 20] was 5 (3-5) h. The “AUC(0-inf)” value [1, 21] was 4050 ± 3340 ng·h/mL, the “AUC(0-t)” value [1, 21] was 3960 ± 3230 ng·h/mL and the CL/F [1, 21] was 59.0 ± 50.2 L/h. For the same compound, the Cmax [1, 21] was 227 ± 118 ng/mL, the t1/2 [1, 21] was 26.4 ± 12.4 h and the “tmax, median (minimum − maximum)” value [1, 21] was 4.88 (3.00-5.08) h. The “AUC(0-inf)” value [1, 22] was 2570 ± 907 ng·h/mL, the “AUC(0-t)” value [1, 22] was 2540 ± 924 ng·h/mL and the CL/F [1, 22] was 75.0 ± 22.0 L/h. For the same compound, the Cmax [1, 22] was 154 ± 38.4 ng/mL, the t1/2 [1, 22] was 23.6 ± 10.2 h and the tmax [1, 22] was 2 (2-5) h. The “AUC(0-inf)” value [1, 23] was 2610 ± 921 ng·h/mL, the “AUC(0-t)” value [1, 23] was 2570 ± 933 ng·h/mL and the CL/F [1, 23] was 74.2 ± 21.8 L/h. For the same compound, the Cmax [1, 23] was 154 ± 38.4 ng/mL, the t1/2 [1, 23] was 23.7 ± 10.4 h and the “tmax, median (minimum − maximum)” value [1, 23] was 2.12 (1.95-5.00) h. For the same compound, the tumor size [2] was “reduced significantly”, the “once-daily dosing at which increases of PD markers reached maximum” value (FGFR pathway; Day 15 of Cycle 1) was 100 to 140 mg and the “change in serum Phosphate, FGF23 and 1,25-(OH)2-Vitamin D” value (FGFR pathway; Day 15 of Cycle 1 vs before administration) was “dose-dependent increases in each marker”. For the same compound, the “cell growth suppressing activity” value [3] was “has a cell growth suppressing activity”.
